# Assay results reported in PubChem BioAssay (NCI).
#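 A five-concentration, 48-hour dose response in 96-well plates underlies each endpoint, interpolated linearly between surrounding concentrations. Here, GI50 denotes the concentration required for 50% inhibition of growth. The concentration for full growth arrest is given as TGI.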
# Legend:
# Assay in all cases: DTP human tumour cell line panel, 48 h
# [1] = tested on: MDA-MB-231 breast
# [2] = tested on: SK-MEL-5 melanoma
# [3] = tested on: HOP-62 NSCLC
# [4] = tested on: COLO 205 colon
# [5] = tested on: MCF7 breast
# [6] = tested on: SNB-75 CNS
# [7] = tested on: EKVX NSCLC
# [8] = tested on: 786-0 renal
# [9] = tested on: K-562 leukemia
# [10] = tested on: SK-MEL-28 melanoma
# [11] = tested on: NCI/ADR-RES ovarian
# [12] = tested on: MDA-MB-435
# [13] = tested on: OVCAR-5 ovarian
# [14] = tested on: HCT-15 colon
# [15] = tested on: A498 renal
# [16] = tested on: PC-3 prostate
# [17] = tested on: MALME-3M melanoma
# [18] = tested on: CAKI-1 renal
# [19] = tested on: SF-295 CNS
# [20] = tested on: RXF 393 renal
# [21] = tested on: OVCAR-3 ovarian
# [22] = tested on: BT-549 breast
# [23] = tested on: HS 578T breast
# [24] = tested on: SNB-19 CNS
# [25] = tested on: SF-268 CNS
# [26] = tested on: LOX IMVI melanoma
# [27] = tested on: NCI-H522 lung
# [28] = tested on: SN12C renal
# [29] = tested on: SK-OV-3 ovarian
# [30] = tested on: SR leukemia
# [31] = tested on: UACC-257 melanoma
# [32] = tested on: SK-MEL-2 melanoma
# [33] = tested on: M14 melanoma
# [34] = tested on: RPMI-8226 leukemia
# [35] = tested on: NCI-H23 lung
# [36] = tested on: T-47D breast
# [37] = tested on: SF-539 CNS
# [38] = tested on: CCRF-CEM leukemia
# [39] = tested on: MOLT-4 leukemia
# [40] = tested on: HCC-2998 colon
# [41] = tested on: TK-10 renal
# [42] = tested on: ACHN renal
# [43] = tested on: UACC-62 melanoma
# [44] = tested on: A549 NSCLC
# [45] = tested on: KM12 colon
# [46] = tested on: SW-620 colon
# [47] = tested on: IGROV1 ovarian
# [48] = tested on: NCI-H226 lung
# [49] = tested on: OVCAR-4 ovarian
# [50] = tested on: UO-31 renal
# [51] = tested on: HL-60(TB) leukemia
# [52] = tested on: DU-145 prostate
# [53] = tested on: OVCAR-8 ovarian
# [54] = tested on: U251 CNS
# [55] = tested on: NCI-H460 lung
# [56] = tested on: HT29 colon
# [57] = tested on: HCT-116 colon
# [58] = tested on: HOP-92 NSCLC
smiles,measurement,setting,value
CCO/C=N/C1=C(C#N)C(c2ccc(F)cc2)c2sc3c(CC)cccc3c2O1 (stereo unspecified),GI50,[1],664 nM
same,TGI,[1],14300 nM
same,GI50,[2],482 nM
same,TGI,[2],11400 nM
same,GI50,[3],453 nM
same,TGI,[3],17600 nM
same,GI50,[4],400 nM
same,TGI,[4],2840 nM
same,GI50,[5],361 nM
same,TGI,[5],12500 nM
same,GI50,[6],206 nM
same,TGI,[6],2830 nM
same,GI50,[7],488 nM
same,TGI,[7],16700 nM
same,GI50,[8],651 nM
same,TGI,[8],13200 nM
same,GI50,[9],292 nM
same,TGI,[9],13600 nM
same,GI50,[10],1280 nM
same,TGI,[10],19700 nM
same,GI50,[11],226 nM
same,TGI,[11],3660 nM
same,GI50,[12],160 nM
same,TGI,[12],446 nM
same,GI50,[13],670 nM
same,TGI,[13],14600 nM
same,GI50,[14],389 nM
same,TGI,[14],10900 nM
same,GI50,[15],199 nM
same,TGI,[15],897 nM
same,GI50,[16],236 nM
same,TGI,[16],11400 nM
same,GI50,[17],542 nM
same,TGI,[17],23800 nM
same,GI50,[18],359 nM
same,TGI,[18],17100 nM
same,GI50,[19],270 nM
same,TGI,[19],2600 nM
same,GI50,[20],177 nM
same,TGI,[20],531 nM
same,GI50,[21],454 nM
same,TGI,[21],13000 nM
same,GI50,[22],1690 nM
same,TGI,[22],8530 nM
same,GI50,[23],385 nM
same,TGI,[23],13000 nM
same,GI50,[24],466 nM
same,TGI,[24],15800 nM
same,GI50,[25],2030 nM
same,TGI,[25],17400 nM
same,GI50,[26],732 nM
same,TGI,[26],11100 nM
same,GI50,[27],209 nM
same,TGI,[27],5610 nM
same,GI50,[28],609 nM
same,TGI,[28],12800 nM
same,GI50,[29],812 nM
same,TGI,[29],21600 nM
same,GI50,[30],451 nM
same,TGI,[30],14900 nM
same,GI50,[31],12700 nM
same,TGI,[31],31300 nM
same,GI50,[32],597 nM
same,TGI,[32],21500 nM
same,GI50,[33],292 nM
same,TGI,[33],12800 nM
same,GI50,[34],331 nM
same,TGI,[34],5520 nM
same,GI50,[35],763 nM
same,TGI,[35],14400 nM
same,GI50,[36],440 nM
same,TGI,[36],26500 nM
same,GI50,[37],280 nM
same,TGI,[37],1230 nM
same,GI50,[38],282 nM
same,TGI,[38],6320 nM
same,GI50,[39],629 nM
same,TGI,[39],13400 nM
same,GI50,[40],641 nM
same,TGI,[40],6650 nM
same,GI50,[41],8080 nM
same,TGI,[41],24000 nM
same,GI50,[42],711 nM
same,TGI,[42],14100 nM
same,GI50,[43],371 nM
same,TGI,[43],17600 nM
same,GI50,[44],518 nM
same,TGI,[44],14200 nM
same,GI50,[45],384 nM
same,TGI,[45],13500 nM
same,GI50,[46],478 nM
same,TGI,[46],13400 nM
same,GI50,[47],401 nM
same,TGI,[47],14100 nM
same,GI50,[48],1030 nM
same,TGI,[48],11600 nM
same,GI50,[49],1570 nM
same,TGI,[49],17800 nM
same,GI50,[50],637 nM
same,TGI,[50],17000 nM
same,GI50,[51],337 nM
same,TGI,[51],5250 nM
same,GI50,[52],401 nM
same,TGI,[52],13000 nM
same,GI50,[53],508 nM
same,TGI,[53],15300 nM
same,GI50,[54],468 nM
same,TGI,[54],11800 nM
same,GI50,[55],379 nM
same,TGI,[55],5260 nM
same,GI50,[56],351 nM
same,TGI,[56],11200 nM
same,GI50,[57],395 nM
same,TGI,[57],11200 nM
same,GI50,[58],193 nM
same,TGI,[58],6120 nM
